{"source": "patent US10966957B2", "about": "“Method of treating cancer with combinations of histone deacetylase inhibitors (HDAC1) substances” (Research Cancer Institute of America, priority 2011, dated 2021)", "key": {"patients with cancer": {"tested_on": "patients with cancer", "assay_type": "in vivo, human", "settings": "octreotide subcutaneously at 50-400 mcgs", "source_text": "As of October 2011, 40 patient charts were selected randomly and reviewed. The inclusion criteria were diagnosis of cancer. No patients were excluded. Patients were aged 27 to 83 years. All were diagnosed by their oncologist/physician and were offered standard conventional treatment of surgery, traditional chemotherapy or radiation.\nThe patients were managed based on unique developed protocols that were designed in correlation with available research studies and clinical trials that implicate using specific natural and synthetic IV therapies. IV therapies are targeted at epigenetic level and consist of antioxidants, quercetin, DCA, sodium phenyl butyrate, and lipoic acid separately or in combination. All patients received one or more of such treatments. […] Doses of each treatment remained the same or close on each treatment, Quercetin was given intravenously at the dose 0.5 to 1.0 gram (50 mg/ml).\nThe progression of disease was measures during the course of treatment through tumor markers, Imaging studies and markers for cancer growth, necrosis, LDH, and inflammation, CRP, as well as the Natural killer cell activity or lymphocyte count and Circulatory tumor cells."}, "prostate cancer cells": {"tested_on": "prostate cancer cells", "settings": "cited from earlier work"}, "[1]": {"tested_on": "refractory solid tumor malignancies", "settings": "cited from earlier work"}, "acites tumor cells": {"tested_on": "acites tumor cells", "settings": "injected peritoneally; cited from earlier work"}, "tyrosine kinase": {"tested_on": "tyrosine kinase", "settings": "measured in 11 subjects; cited from earlier work"}, "[2]": {"tested_on": "human squamous cell carcinoma line", "settings": "injected interperitoneally; minimal effects on surrounding normal cells; cited from earlier work"}, "[3]": {"tested_on": "cancer deemed no longer treatable by conventional methods", "settings": "cited from earlier work"}, "[4]": {"tested_on": "MBT-2 bladder transitional cell carcinoma, B16-F10 melanoma and LL/2 Lewis lung carcinoma", "settings": "depending on concentrations; cited from earlier work"}}}
{"molecule": "Octreotide", "values": [{"measurement": "Lowering of IgF-1 by octreotide in the protocols", "setting": "patients with cancer", "value": "lowering the IgF-1 significantly"}]}
{"molecule": "Sodium phenylbutyrate [SPB]", "values": [{"measurement": "Potency relative to phenylacetate", "setting": "prostate cancer cells", "value": "more potent than phenylacetate"}, {"measurement": "Toxicity of oral doses", "setting": "[1]; oral doses up to 36 grams per day", "value": "minimal toxicity"}, {"measurement": "Patients with stable disease for more than 6 months while on the drug", "setting": "[1]; oral", "value": 25, "unit": "%"}]}
{"molecule": "O=c1c(O)c(-c2ccc(O)c(O)c2)oc2cc(O)cc(O)c12", "note": "[Quercetin]", "values": [{"measurement": "Increase in lifespan", "setting": "acites tumor cells", "value": 20, "unit": "%"}, {"measurement": "Subjects with a decrease in tyrosine kinase levels", "setting": "tyrosine kinase", "value": 9}, {"measurement": "Inhibition of cancer growth", "setting": "[2]", "value": "selective inhibition of cancer growth"}, {"measurement": "Dose recommended for phase 2 studies", "setting": "[3]; intravenous", "value": "≤ 1400", "unit": "mg/m2"}, {"measurement": "Patients with sustained decreases in unique cancer markers", "setting": "[3]; of 50 patients, metastatic hepatocellular carcinoma and stage 4 metastatic ovarian cancer", "value": "two"}, {"measurement": "Suppression as defined by the radiological criteria of WHO", "setting": "[3]; up to 1700 mg/m2 intravenous for 3 weeks, 50 patients", "value": "None of the patients achieved suppression"}]}
{"molecule": "O=C(O)CCCCC1CCSS1", "note": "(centres unmarked) [Lipoic acid]", "values": [{"measurement": "Reduction of cell number", "setting": "[4]", "value": "10-50%"}]}
